Sequences and labels used below:
T1: BK (Clostridium acetobutylicum, UniProt Q45829)
T1 construct: made in house; host or cells: E. coli, crude cell extract (pZA33-0020-0021)
T1 sequence (Q45829 1-355): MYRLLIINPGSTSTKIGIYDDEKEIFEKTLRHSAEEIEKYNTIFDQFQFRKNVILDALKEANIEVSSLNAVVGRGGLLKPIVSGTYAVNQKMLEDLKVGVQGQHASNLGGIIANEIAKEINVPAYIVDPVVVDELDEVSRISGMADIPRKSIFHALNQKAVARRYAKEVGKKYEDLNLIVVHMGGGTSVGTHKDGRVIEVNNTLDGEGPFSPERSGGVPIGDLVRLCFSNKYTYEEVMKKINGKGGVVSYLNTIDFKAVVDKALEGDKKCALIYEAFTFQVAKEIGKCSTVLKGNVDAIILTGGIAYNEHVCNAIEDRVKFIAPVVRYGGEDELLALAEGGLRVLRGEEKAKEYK

B1: BK: Butyrate kinase from C. acetobutylicum (gene 0021), native ptb/bk operon expressed in pZA33; cell extract (protein, listed as Clostridium acetobutylicum)
chain: MYRLLIINPGSTSTKIGIYDDEKEIFEKTLRHSAEEIEKYNTIFDQFQFRKNVILDALKEANIEVSSLNAVVGRGGLLKPIVSGTYAVNQKMLEDLKVGVQGQHASNLGGIIANEIAKEINVPAYIVDPVVVDELDEVSRISGMADIPRKSIFHALNQKAVARRYAKEVGKKYEDLNLIVVHMGGGTSVGTHKDGRVIEVNNTLDGEGPFSPERSGGVPIGDLVRLCFSNKYTYEEVMKKINGKGGVVSYLNTIDFKAVVDKALEGDKKCALIYEAFTFQVAKEIGKCSTVLKGNVDAIILTGGIAYNEHVCNAIEDRVKFIAPVVRYGGEDELLALAEGGLRVLRGEEKAKEYK

For the first series, the system named is aminotransferase from Leishmania mexicana.
Assay: not given
Conditions: activity considered 100% on tyrosine; cited from earlier work.
In the case of `N[C@@H](Cc1ccc(O)cc1)C(=O)O` [tyrosine], the “activity (substrate specificity)” value is 100%. On to `CSCC[C@H](N)C(=O)O` [methionine], for which the “activity (substrate specificity)” value is reported as 25%. For the molecule `N[C@@H](Cc1ccccc1)C(=O)O` [phenylalanine], the “activity (substrate specificity)” value is 90%. Regarding `N[C@@H](Cc1c[nH]c2ccccc12)C(=O)O` [tryptophan], the “activity (substrate specificity)” value is listed as 85%. Consider `CC(C)C[C@H](N)C(=O)O` [leucine], for which the “activity (substrate specificity)” value is listed as 25%.

Another series addresses T1, BK. In words: Butyrate kinase (BK) enzyme activity, butyrate to butyryl-phosphate. It counts as biochemical, C. acetobutylicum. To be noted: extracts from cells containing pZA33-0020-0021. On the procedure: The enzyme activity of PTB is measured in the direction of butyryl-CoA to butyryl-phosphate as described in Cary et al. J. Bacteriol. 170:4613-4618 (1988). It provides inorganic phosphate for the conversion, and follows the increase in free CoA with the reagent 5,5′-dithiobis-(2-nitrobenzoic acid), or DTNB. DTNB rapidly reacts with thiol groups such as free CoA to release the yellow-colored 2-nitro-5-mercaptobenzoic acid (TNB), which absorbs at 412 nm with a molar extinction coefficient of 14,140 M cm^−1. The assay buffer contained 150 mM potassium phosphate at pH 7.4, 0.1 mM DTNB, and 0.2 mM butyryl-CoA, and the reaction was started by addition of 2 to 50 μL cell extract. The enzyme activity of BK is measured in the direction of butyrate to butyryl-phosphate formation at the expense of ATP. The procedure is similar to the assay for acetate kinase previously described Rose et al., J. Biol. Chem. 211:737-756 (1954). However we have found another acetate kinase enzyme assay protocol provided by Sigma to be more useful and sensitive. […] The reaction was started by adding 2 to 50 μL cell extract, and the reaction was monitored based on the decrease in absorbance at 340 nm indicating NADH oxidation. […]
Regarding B1, the “specific activity of BK” value is “approximately 65 U/mg”.
